Measured values published in patent US20240041877A1, “DOSAGE REGIME AND METHOD FOR TREATING PULMONARY ARTERIAL HYPERTENSION” (Altavant Sciences GmbH, priority 2019, published 2024).

Assays:
[1] = Cardiac conduction (QTcF) in healthy adult subjects; assay type: in vivo, human
[2] = Study KAR5585-101 Part 1 (SAD): plasma pharmacokinetics after a single oral dose of KAR5585, fasting and fed (incl. dose proportionality and food effect); conditions: for half-life / AUC / AUC(0-inf) / Cmax / Vd/F / Tmax: human, po; for AUC: AUC0-tau; for Vd/F: Vz/F; for Tmax: Median
[3] = 100 mg KAR5585 single oral, fasted, Cohort 1, Geo. Mean
[4] = 100 mg KAR5585 single oral, fasted, Cohort 1, Mean
[5] = 200 mg KAR5585 single oral, fasted, Cohort 2, Geo. Mean
[6] = 200 mg KAR5585 single oral, fasted, Cohort 2, Mean
[7] = 400 mg KAR5585 single oral, fasted, Cohort 3A, Geo. Mean
[8] = 400 mg KAR5585 single oral, fasted, Cohort 3A, Mean
[9] = 400 mg KAR5585 single oral, fed, Cohort 3B, Geo. Mean
[10] = 400 mg KAR5585 single oral, fed, Cohort 3B, Mean
[11] = 700 mg KAR5585 single oral, fasted, Cohort 4, Geo. Mean
[12] = 700 mg KAR5585 single oral, fasted, Cohort 4, Mean
[13] = 1200 mg KAR5585 single oral, fasted, Cohort 5, Geo. Mean
[14] = 1200 mg KAR5585 single oral, fasted, Cohort 5, Mean
[15] = 2000 mg KAR5585 single oral, fasted, Cohort 6, Geo. Mean
[16] = 2000 mg KAR5585 single oral, fasted, Cohort 6, Mean
[17] = 100 to 2000 mg KAR5585 single oral dose, fasting, plasma analyte = label
[18] = plasma, 100 mg, 100 mg KAR5585 single oral, fasted, Cohort 1, Geo. Mean
[19] = plasma, 100 mg, 100 mg KAR5585 single oral, fasted, Cohort 1, Mean
[20] = plasma, 200 mg, 200 mg KAR5585 single oral, fasted, Cohort 2, Geo. Mean
[21] = plasma, 200 mg, 200 mg KAR5585 single oral, fasted, Cohort 2, Mean

With `CCOC(=O)[C@@H]1CC2(CCN(c3cc(O[C@H](c4ccc(Cl)cc4-c4ccccc4)C(F)(F)F)nc(N)n3)CC2)CN1` [KAR5585, (S)-ethyl 8-(2-amino-6-((R)-1-(5-chloro-[1,1′-biphenyl]-2-yl)-2,2,2-trifluoroethoxy)pyrimidin-4-yl)-2,8-diazaspiro[4.5]decane-3-carboxylate] the “tendency to increase QTcF in a dose-dependent manner” value [1] was “Neither the prodrug (KAR5585) nor the active drug (KAR5417) showed any tendency to increase QTcF in a dose-dependent manner”, the AUC0-24/D [2, 3] was 0.475 (hr*ng/ml)/mg and the C12 [2, 3] was “BLQ”. For the same compound, the CL/F [2, 3] was 2110 L/h, the Cmax/D [2, 3] was 0.132 (ng/mL)/mg and the AUC0-24/D [2, 4] was 0.496 (hr*ng/ml)/mg. The C12 [2, 4] was “BLQ”, the CL/F [2, 4] was 2210 L/h and the Cmax/D [2, 4] was 0.139 (ng/mL)/mg. For the same compound, the AUC0-24/D [2, 5] was 0.467 (hr*ng/ml)/mg, the C12 [2, 5] was “BLQ” and the CL/F [2, 5] was 2100 L/h. The Cmax/D [2, 5] was 0.0875 (ng/mL)/mg, the AUC0-24/D [2, 6] was 0.485 (hr*ng/ml)/mg and the C12 [2, 6] was “BLQ”. The CL/F [2, 6] was 2220 L/h, the Cmax/D [2, 6] was 0.0961 (ng/mL)/mg and the AUC0-24/D [2, 7] was 0.707 (hr*ng/ml)/mg. For the same compound, the CL/F [2, 7] was 1390 L/h, the Cmax/D [2, 7] was 0.105 (ng/mL)/mg and the AUC0-24/D [2, 8] was 0.742 (hr*ng/ml)/mg. For the same compound, the CL/F [2, 8] was 1480 L/h, the Cmax/D [2, 8] was 0.132 (ng/mL)/mg and the AUC0-24/D [2, 9] was 2.19 (hr*ng/ml)/mg. For the same compound, the CL/F [2, 9] was 443 L/h, the Cmax/D [2, 9] was 0.413 (ng/mL)/mg and the AUC0-24/D [2, 10] was 2.21 (hr*ng/ml)/mg. The CL/F [2, 10] was 449 L/h, the Cmax/D [2, 10] was 0.422 (ng/mL)/mg and the AUC0-24/D [2, 11] was 0.584 (hr*ng/ml)/mg. For the same compound, the CL/F [2, 11] was 1700 L/h, the Cmax/D [2, 11] was 0.136 (ng/mL)/mg and the AUC0-24/D [2, 12] was 0.617 (hr*ng/ml)/mg. The CL/F [2, 12] was 1810 L/h, the Cmax/D [2, 12] was 0.142 (ng/mL)/mg and the AUC0-24/D [2, 13] was 0.333 (hr*ng/ml)/mg. For the same compound, the CL/F [2, 13] was 2960 L/h, the Cmax/D [2, 13] was 0.0568 (ng/mL)/mg and the AUC0-24/D [2, 14] was 0.378 (hr*ng/ml)/mg. For the same compound, the CL/F [2, 14] was 3850 L/h, the Cmax/D [2, 14] was 0.0692 (ng/mL)/mg and the AUC0-24/D [2, 15] was 0.348 (hr*ng/ml)/mg. For the same compound, the CL/F [2, 15] was 3000 L/h, the Cmax/D [2, 15] was 0.0475 (ng/mL)/mg and the AUC0-24/D [2, 16] was 0.403 (hr*ng/ml)/mg. For the same compound, the CL/F [2, 16] was 3820 L/h, the Cmax/D [2, 16] was 0.0522 (ng/mL)/mg and the “Dose proportionality power model, AUC0-12: Intercept estimate” value [2, 17] was 1.51. For the same compound, the “Dose proportionality power model, AUC0-inf: Intercept estimate” value [2, 17] was 1.46, the “Dose proportionality power model, AUC0-tau: Intercept estimate” value [2, 17] was 0.258 and the “Dose proportionality power model, Cmax: Intercept estimate” value [2, 17] was 0.534. The half-life ([2]; in vivo, 200 mg) was 3.17 h, the AUC [2, 18] was 27.4 ng·h/mL and the AUC [2, 19] was 35 ng·h/mL. The AUC(0-inf) ([2]; plasma, 100 mg, AUC0-∞, 100 mg KAR5585 single oral, fasted, Cohort 1, Geo. Mean) was 47.5 ng·h/mL, the AUC(0-inf) ([2]; plasma, 100 mg, AUC0-∞, 100 mg KAR5585 single oral, fasted, Cohort 1, Mean) was 49.5 ng·h/mL and the Cmax [2, 18] was 13.2 ng/mL. It also gave a Cmax [2, 19] of 13.9 ng/mL, a Vd/F [2, 18] of 5190 L and a Vd/F [2, 19] of 5680 L. It also gave a half-life ([2]; plasma, 100 mg, t1 (t½, apparent terminal half-life), 100 mg KAR5585 single oral, fasted, Cohort 1, Geo. Mean) of 1.71 h, a half-life ([2]; plasma, 100 mg, t1 (t½, apparent terminal half-life), 100 mg KAR5585 single oral, fasted, Cohort 1, Mean) of 1.89 h and a Tmax ([2]; plasma, 100 mg, 100 mg KAR5585 single oral, fasted, Cohort 1) of 1.5 h. The AUC [2, 20] was 52 ng·h/mL, the AUC [2, 21] was 61.4 ng·h/mL and the AUC(0-inf) ([2]; plasma, 200 mg, AUC0-∞, 200 mg KAR5585 single oral, fasted, Cohort 2, Geo. Mean) was 95.3 ng·h/mL. For the same compound, the AUC(0-inf) ([2]; plasma, 200 mg, AUC0-∞, 200 mg KAR5585 single oral, fasted, Cohort 2, Mean) was 99.5 ng·h/mL, the Cmax [2, 20] was 17.5 ng/mL and the Cmax [2, 21] was 19.2 ng/mL. The Vd/F [2, 20] was 9610 L, the Vd/F [2, 21] was 10300 L and the half-life ([2]; plasma, 200 mg, t1 (t½, apparent terminal half-life), 200 mg KAR5585 single oral, fasted, Cohort 2, Mean) was 3.63 h. For the same compound, the Tmax ([2]; plasma, 200 mg, 200 mg KAR5585 single oral, fasted, Cohort 2) was 1.78 h, the AUC(0-inf) ([2]; plasma, 400 mg, AUC0-inf, Geometric Mean, Cohort 3A (Fasting), 400 mg KAR5585 single oral dose, fasting) was 288 ng·h/mL and the AUC(0-inf) ([2]; plasma, 400 mg, AUC0-inf, Geometric Mean, Cohort 3B (Fed), 400 mg KAR5585 single oral dose, fed) was 903 ng·h/mL. It also gave an AUC ([2]; plasma, 400 mg, 400 mg KAR5585 single oral, fasted, Cohort 3A, Geo. Mean) of 176 ng·h/mL.
